Assay results from patent US20120010148A1, “COMBINATION THERAPIES USING NAP” (ALLON THERAPEUTICS INC., priority 2008, published 2012).
“Also recorded” adds a separate entry of the source.

Experiments:
cell cultures = conditions: cited from earlier work
STOP+/− mice [1] = experiment: Morris water maze and probe test; type: in vivo, mouse
Procedure: The NAP vehicle solution (termed DD), included the following ingredients (per milliliter): 7.5 mg of NaCl, 1.7 mg of citric acid monohydrate, 3 mg of disodium phosphate dihydrate, and 0.2 mg of benzalkonium chloride solution (50%) (Alcalay R N et al., Neurosci Lett, 361(1-3): 128-131 (2004)). NAP or vehicle solution (DD) was administered to mice hand-held in a semisupine position with nostrils facing the investigator. A pipette tip was used to administer 2.5 μl/nostril. The mouse was hand-held until the solution was totally absorbed (10 s). […]
The test measures the ability of rodents to learn and remember, by spatial navigation, the place of the hidden platform in a round water maze. […] Here, mice were monitored on five consecutive swimming days. […] The time required to reach the platform during the first daily test (indicative of learning and intact reference memory) and the time required to reach the platform in the second trial [indicative of short-term (working) memory] were measured and recorded separately. […] The platform was removed from the maze and the time spent by the mice in the pool's quadrant where the platform used to be was recorded. […] Mice were released into the water and the time taken to find the platform was recorded (maximum 60 seconds). […]

[2] = system: Human SH-SY5Y neuroblastoma; experiment: Clozapine-induced cell death in SH-SY5Y cells, MTS assay; type: cell-based; conditions: 24 hours
Text: Clozapine, a widely used anti psychotic drug may be associated with increased cell mortality. It was not known, however, whether NAP ([…], SEQ ID NO:2) treatment would inhibit clozapine associated neuronal death. To address this question and validate the efficiency of using a NAP-clozapine combination drug candidate, an experimental test system in cell culture was established (Heiser et al., Journal of Psychopharmacology 21(8):851-856 (2007)). Human SH-SY5Y neuroblastoma supplemented with 15% fetal calf serum (FCS) (Beit-Haemek, Israel), 1% penicillin-streptomycin, and 1% glutamine were incubated in a 5% CO2 atmosphere. Thirty-six thousand cells/well (in a 96 well plates) were plated 24 hours prior to the clozapine or NAP treatment. Clozapine (CLZ) was obtained from Sigma Chemicals (Sigma, Israel). Thirty-six thousand cells per well (in at least 6 replicate wells) were exposed to clozapine (CLZ, 20 μg/ml) or clozapine (CLZ, 20 μg/ml)+NAP or NAP alone (10^−15M-10^−10 M) for 24 hours at 37° C. Drug and control solutions were dissolved in ethanol. Measurement of metabolic activity and survival was determined by non-radioactive cell proliferation assay (MTS) (Promega, USA) and evaluated by an ELISA-reader at 490 nm wavelength.

[3] = system: closed head injury in mice; conditions: cited from earlier work
[4] = system: Rat pheochromocytoma cells (PC12); experiment: Serum-deprivation survival of PC12 cells, MTS viability assay; type: cell-based
Procedure: The survival-promoting effects of galantamine (an acetylcholine-esterase inhibitor, or AcEI), NAP, and their combinatorial treatment were assessed in cell cultures. Cell culture method was adapted from Calderon et al., J Neurosci Res 56, 620-631 (1999).
Rat pheochromocytoma cells (PC12) were grown in Dulbecco's modified Eagle's medium (DMEM) supplemented with 8% fetal calf serum, 8% horse donor serum, 2 mm L-glutamine, and 1% penicillin-streptomycin solution.
For the experiments, cells were harvested, re-suspended, and seeded in 96-well plates at a concentration of 1.5×10^4 cells/well. Cells were pretreated with NAP and Galantamine [Galantamine (0.1, 0.5, 1, 10 μM); NAP (10^−8M, 10^−1° M, 10^−12M, 10^−15M)] 3 hours prior to serum deprivation and during serum deprivation. The assay for cell viability was performed 48 hours after serum deprivation. Calibration method is described below.
Culture medium was replaced by fresh medium without serum, containing NAP and Galantamine. Cells were incubated for 48 hours and then subject to MTS viability assay.
PC12 cells were seeded and treated as mentioned above without any drugs for 24 hours, 48 hours, and 72 hours. MTS results are represented by the percentage of viable cells from the serum deprived treatment vs. control treatment.

STOP+/− mice [5] = experiment: Open field locomotor activity; type: in vivo, mouse
Procedure: The NAP vehicle solution (termed DD), included the following ingredients (per milliliter): 7.5 mg of NaCl, 1.7 mg of citric acid monohydrate, 3 mg of disodium phosphate dihydrate, and 0.2 mg of benzalkonium chloride solution (50%) (Alcalay R N et al., Neurosci Lett, 361(1-3): 128-131 (2004)). NAP or vehicle solution (DD) was administered to mice hand-held in a semisupine position with nostrils facing the investigator. A pipette tip was used to administer 2.5 μl/nostril. The mouse was hand-held until the solution was totally absorbed (10 s). […] STOP+/− male mice (5 months old, n=4) received daily doses of 10 mg/kg intraperitoneal injection (IP) of clozapine (5 days a week), for the duration of the experiment (7 weeks). A control STOP+/− male mice group (5 month old, n=3) were injected daily with saline. NAP treatment included daily (5 days a week) intranasal administrations (0.5 μg/5 μl/mouse/day) for 7-10 weeks. For intranasal administration, the peptide was dissolved in the vehicle solution (termed DD) described above. Each experimental group included 10-12 mice, 4-12 month-old; mean age 6 months). […]
Locomotor activity was measured in 5 consecutive sessions, 3 minutes each and the mean path length in cm of each mouse in the 3 minute sessions per the entire 15 minute period of observation in open field (80 cm diameter) was determined. […]

CC[C@H](C)[C@H](NC(=O)[C@H](CO)NC(=O)[C@@H](NC(=O)[C@@H]1CCCN1C(=O)[C@H](C)NC(=O)[C@@H](N)CC(N)=O)C(C)C)C(=O)N1CCC[C@H]1C(=O)N[C@@H](CCC(N)=O)C(=O)O [NAP]
neuroprotective activity against a wide variety of toxins (cell cultures): neuroprotective activity at femtomolar concentrations
probe test, time in area where the platform used to be (spatial memory) (STOP+/− mice [1]; Example 3, STOP+/− male mice, 5th day, NAP intranasal 0.5 μg/mouse/day or clozapine IP, FIG. 10): significantly improved the performance; also recorded: significantly more time
Morris water maze learning and memory (STOP+/− mice [1]; Example 4, STOP+/− mice, NAP 0.5 microgram/mouse/day, clozapine 3 mg/kg/day, FIG. 13): protection against adverse clozapine effects on learning
effect on clozapine induced cell death ([2]; NAP 10^−15M with clozapine 20 μg/ml, FIG. 1): reversed
cell mortality with NAP alone ([2]; NAP alone 10^−15M-10^−10 M, FIG. 2): does not affect cell mortality; also recorded: did not affect cell mortality
damage caused by closed head injury [3]: reduced damage
protection against extensive cell death ([4]; >40% cell death, compared against cultures supplemented with serum, FIG. 7): Neither NAP nor galantamine protected
protection against serum deprivation ([4]; NAP alone, FIG. 5): provided protection
hyper-locomotion (path length) in open field (STOP+/− mice [5]; Example 3, STOP+/− male mice, NAP intranasal 0.5 μg/mouse/day or clozapine 10 mg/kg IP, FIG. 8): significantly decreased the hyper-locomotion; also recorded: significantly reduced the path length
open field activity (STOP+/− mice [5]; Example 4, STOP+/− mice, NAP intranasal 0.5 microgram/mouse/day, clozapine injection 3 mg/kg/day, FIG. 11): also reduced the activity
